In EP0394553A2, “Use of fluorine containing pyridone carboxylic acid derivatives for preparing a medicament for the treatment of HIV infections” (DAIICHI PHARMACEUTICAL CO., LTD., priority 1989, dated 1990):

These compounds were tested on CEM cells (assay: Cytotoxicity in uninfected CEM cells (trypan blue staining)). Details: at concentrations not exceeding 10 mcg/ml.
Method: Human T cell-derived, T4 antigen-positive CEM cells (provided by the Institut Pasteur, France) were used as host cells of HIV. Cell culture was carried out in a carbon dioxide-containing atmosphere in an incubator maintained at 37°C according to a conventional method [cf. […] The culture supernatant (5×10⁶ TCID₅₀/ml) obtained by subjecting CEM cells to HIV (LAV 1) infection and stored at -70°C was used as the HIV source.
The cell culture medium (10 ml) placed in a plastic culture flask (25 cm²) was inoculated with CEM cells to a cell density of 2.5×10⁵ cells/ml and incubation was performed for 3 days. Then, the culture was transferred to a 15-ml plastic centrifuge tube and centrifuged at 1,000 revolutions per minute for 5 minutes for medium removal. A fresh portion of the medium was added to the cells, the cell density being adjusted to 5.0×10⁵ cells/ml. The following mixture (1.0 ml) containing the cell suspension prepared in the above manner was incubated in a 24-well plastic culture plate for 4 days:
The cells in each well were then suspended uniformly in the medium by pipetting and a 0.5-ml portion of the suspension was separated.
A fresh 2-ml portion of the test substance-free medium was added to the remaining cell suspension (0.5 ml) and, after a further 3-day incubation, a cell suspension was produced in the same manner and a 0.5-ml portion thereof was removed.
The cell suspensions collected in the above manner were subjected to viable cell count and viable cell percentage determinations by trypan blue staining.
For CC1COc2c(N3CCN(C)CC3)c(F)cc3c(=O)c(C(=O)O)cn1c23 (racemic) [OFLX, (±)-9-fluoro-3-methyl-10-(4-methyl-1-piperazinyl)-7-oxo-2,3-dihydro-7H-pyrido[1,2,3-de][1,4]benzoxazine-6-carboxylic acid], the cytotoxicity was “no cytotoxicity”. With CCn1cc(C(=O)O)c(=O)c2cc(F)c(N3CCNCC3)cc21 [NFLX, 1-ethyl-6-fluoro-1,4-dihydro-4-oxo-7-(1-piperazinyl)-3-quinolinecarboxylic acid] the cytotoxicity was “no cytotoxicity”. For C[C@H]1COc2c(N3CCN(C)CC3)c(F)cc3c(=O)c(C(=O)O)cn1c23 [DR-3355, (-)-(S)-9-fluoro-2,3-dihydro-3-methyl-10-(4-methyl-1-piperazinyl)-7-oxo-7H-pyrido[1,2,3-de][1,4]benzoxazine-6-carboxylic acid hemihydrate], the cytotoxicity was “no cytotoxicity”.
